Reference: the supplement of paper PMC3937590

Tests used:
Test in all cases: -log10 GI50 (growth inhibition 50%) (-log10(M)); higher = more potent growth inhibition
HBL100 = system: HBL100
Outline: (§1)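 The reported figure is the negative logarithm of GI50, defined as the molar concentration that produces the set level of growth inhibition. The logarithm is base 10. It comes from a Gompertz curve fitted by nonlinear least squares to 72-hour luminescence data from breast cancer cell lines given nine doses in 1:5 serial dilution, in triplicate, with a time-zero plate as reference. A < qualifier marks values equal to the top dose.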

HCC202 = system: HCC202
Outline: as §1

HCC1937 = system: HCC1937
Outline: as §1

ZR7530 = system: ZR7530
Outline: as §1

MDAMB436 = system: MDAMB436
Outline: as §1

UACC893 = system: UACC893
Outline: as §1

MCF10A = system: MCF10A
Outline: as §1

T47D = system: T47D
Outline: as §1

T4 = system: T4
Outline: as §1

MDAMB134VI = system: MDAMB134VI
Outline: as §1

HCC1428 = system: HCC1428
Outline: as §1

HCC1954 = system: HCC1954
Outline: as §1

BT483 = system: BT483
Outline: as §1

MDAMB175VII = system: MDAMB175VII
Outline: as §1

S1 = system: S1
Outline: as §1

MDAMB468 = system: MDAMB468
Outline: as §1

MX1 = system: MX1
Outline: as §1

| Compound | -log10 GI50 (HBL100) | -log10 GI50 (HCC202) | -log10 GI50 (HCC1937) | -log10 GI50 (ZR7530) | -log10 GI50 (MDAMB436) | -log10 GI50 (UACC893) | -log10 GI50 (MCF10A) | -log10 GI50 (T47D) | -log10 GI50 (T4) | -log10 GI50 (MDAMB134VI) | -log10 GI50 (HCC1428) | -log10 GI50 (HCC1954) | -log10 GI50 (BT483) | -log10 GI50 (MDAMB175VII) | -log10 GI50 (S1) | -log10 GI50 (MDAMB468) | -log10 GI50 (MX1) |
| --- | --- | --- | --- | --- | --- | --- | --- | --- | --- | --- | --- | --- | --- | --- | --- | --- | --- |
| CC(=O)Nc1cccc(-n2c(=O)n(C3CC3)c(=O)c3c(Nc4ccc(I)cc4F)n(C)c(=O)c(C)c32)c1 | < 4.78 | 6.28 | < 4.78 | < 4.78 | 4.81 | 5.77 | 8.23 | < 4.78 | 9 | 8.33 | < 4.78 | 6.79 | < 4.78 | 7.88 | 8.31 | 4.84 |  |
| O=C1NC(=O)/C(=C/c2ccc3nccc(-c4ccncc4)c3c2)S1 | 5.42 | 7.31 | 6.09 | 6.82 | 6.09 | 7.24 | 6.57 | 6.95 | 7.31 | 6.33 | 6.28 | 6.68 | 6.8 | 6.33 | 7.04 | 6.03 |  |
| C=CCNC1=C2C[C@@H](C)C[C@H](OC)[C@H](O)[C@@H](C)/C=C(\C)[C@H](OC(N)=O)[C@@H](OC)/C=C\C=C(/C)C(=O)NC(=CC1=O)C2=O [17-AAG] | 5.97 | 8.27 | 6.88 |  | 5.96 | 7.77 | 7.4 | 5.97 |  | 7.42 | 8.39 | 7.5 | 6.68 | 7.39 | 6.89 | 5.64 |  |
| COc1cc2ncnc(Nc3cccc(Cl)c3)c2cc1OC [AG1478] | < 3.78 | 5.75 | 4.89 |  | 4.09 | 6.39 | 6.65 | 4.74 |  | 4.32 | < 3.78 | 5.64 | < 3.78 | 6.08 | 7.25 | < 3.78 |  |
| CCc1c2c(nc3ccc(OC(=O)N4CCC(N5CCCCC5)CC4)cc13)-c1cc3c(c(=O)n1C2)COC(=O)[C@]3(O)CC [CPT-11] | 5.5 | 4.32 | 5.14 | < 4.13 | 5.18 | 4.22 | 5.7 | 6.31 | 5.23 | 4.94 | 4.64 | 4.72 | 5.22 | 4.17 | < 4.13 | 4.49 |  |
| CC(=O)O[C@@]12CO[C@@H]1C[C@H](O)[C@@]1(C)C(=O)[C@H](O)C3=C(C)[C@@H](OC(=O)[C@H](O)[C@@H](NC(=O)OC(C)(C)C)c4ccccc4)C[C@@](O)([C@@H](OC(=O)c4ccccc4)[C@H]21)C3(C)C [Docetaxel] | 8.75 | 8.63 |  | 8.4 | 8.07 | 7.77 | 8.63 | 8.51 | 8.77 | 7.81 | 7.77 | 8.78 | 7.65 | 7.8 | 8.33 | 8.64 |  |
| O=c1[nH]cc(F)c(=O)[nH]1 [Fluorouracil] | 4.15 | 4.77 | 3.66 |  | 2.97 | 3.45 | 4.95 |  |  | 2.66 | 4.99 | 4.79 | 4.48 | 3.96 | 3.9 | 3.62 |  |
| Nc1ccn([C@@H]2O[C@H](CO)[C@@H](O)C2(F)F)c(=O)n1 [Gemcitabine] | 7.64 | 4.82 | 5.97 |  | 7.49 | 3.54 | 7.7 | 6.02 |  | 2.85 | 3.58 | 4.51 |  | 8.12 | 7.04 | 7.01 |  |
| COc1ccc(C2=N[C@@H](c3ccc(Cl)cc3)[C@@H](c3ccc(Cl)cc3)N2C(=O)N2CCNC(=O)C2)c(OC(C)C)c1 [Nutlin 3a] | 4.32 | 5.02 | 4.65 |  |  |  | 5.21 | 4.51 |  | 4.47 | 4.5 | 4.76 | 5.19 | 5.23 |  |  | 4.65 |
| O=C(O)C(=O)O.[NH-][C@@H]1CCCC[C@H]1[NH-].[Pt+2] [Oxaliplatin] | 5.65 | 5.27 | 5.1 | < 3.2 | 4.46 | 3.83 | 5.41 | 5.55 | 5.21 | 3.54 | 5.09 | 5.95 | 4.56 | 5.44 | 4.68 |  |  |
| CO[C@H]1C[C@@H]2CC[C@@H](C)[C@@](O)(O2)C(=O)C(=O)N2CCCC[C@H]2C(=O)O[C@H]([C@H](C)C[C@@H]2CC[C@@H](O)[C@H](OC)C2)CC(=O)[C@H](C)/C=C(\C)[C@@H](O)[C@@H](OC)C(=O)[C@H](C)C[C@H](C)/C=C/C=C/C=C/1C [Rapamycin] | 4.24 | 8.24 | 5.91 |  | 3.85 | < 3.78 | 6.34 | 6.36 |  | 9.57 | 7.29 | 8.45 | 8.78 | 8.43 |  | 4.75 | 5.77 |
| CCN(CC)CCNC(=O)c1c(C)[nH]c(/C=C2\C(=O)Nc3ccc(F)cc32)c1C [Sunitinib malate] | 5.34 | 5.03 | 5.16 |  |  |  | 5.27 | 4.94 |  | 4.97 | 5.29 | 5.26 | 4.73 | 5.18 |  |  | 5.27 |
| CC/C(=C(\c1ccccc1)c1ccc(OCCN(C)C)cc1)c1ccccc1 [Tamoxifen] | 4.32 | 4.55 | < 3.78 |  | 4.51 | 4.72 | 4.16 | < 3.78 |  | 6.78 | 5.49 | 4.54 | 5.47 | < 3.78 | 5.84 |  |  |
